Experimental data as given in article PMC11314205, “Incorporation of an Isohexide Subunit into the Endochin-like Quinolone Scaffold” (Molecules, 2024).
Converted amounts (≈) assume the structure as drawn. “Also recorded” adds a separate entry of the source. Like-named read-outs stand apart in the source and are kept apart here.

Experiments:
[1] = tested on: chloroquine-sensitive Plasmodium falciparum strain 3D7 (MRA-102); assay: In vitro screening against chloroquine-sensitive P. falciparum 3D7; assay type: cell-based
Description: (§1) The ELQs 14–17 were tested against the chloroquine-sensitive Plasmodium falciparum strain 3D7 (MRA-102), as provided by the MR4 Unit of the American Type Culture Collection (ATCC, Manassas, VA, USA). Details of the assay have been previously published. Cytotoxicity IC50 values for 14–17 were obtained on human BJ fibroblasts as previously described. [table]

[2] = Kinetic (report: thermodynamic) solubility in pH 7.4 phosphate buffer, quantitative LC-MS; assay type: physicochemical; details: phosphate buffer pH 7.4, room temperature, LC-MS (supplementary report); for solubility at 20 h: phosphate buffer, 23 °C, pH 7.4, aqueous buffer, thermodynamic from solid
Description: Title: Thermodynamic Solubility Study in Phosphate Buffer 7.4 Date: 02/24/2023 […]
The goal of this study is to determine the thermodynamic solubility values for compounds: JS -13, JS-14, JS-17 and JS-18 in phosphate buffer pH 7.4.
Compound ID Solubility (µM) Solubility (mg/mL)
The scope of the thermodynamic (equilibrium) solubility experiment is to investigate the solubility of the compounds in a saturated solution. For this method, phosphate buffer is added to solid compound and mixed at room temperature for […] to ensure that equilibrium is achieved. To determine concentrations to generate calibration curves and for the equilibrated compounds (in buffer) a general LC-MS method was developed. The method includes a high-resolution separation by a UPLC unit as well as a high sensitivity ion detection by a mass spectrometer equipped with an electrospray ionization probe. For calibration curves the compounds were dissolved in DMSO and diluted by ACN. The supernatant of the equilibrated samples, after a 2-step centrifugation process, were also diluted by ACN to ensure full solubilization.
(1 picture or pasted object on this page, not shown here)
The experiment was carried out as recommended by AstraZeneca’s Mechanistic Biology & Profiling, Discovery Sciences, R&D group (AstraZeneca, Gothenburg, Sweden). The method was published in ASSAY and Drug Development Technologies; Title: “A Fully Integrated Assay Panel for Early Drug Metabolism and […]
• The experiment was performed on December 3, 2022
A Shimadzu LC-40D XR HPLC system equipped with a PDA detector (Model: SPD-M40) and connected to an LCMS-2020 mass spectrometer was utilized for determining sample concentrations. For HPLC separation an XBridge C18 column (4.6x50 mm, […] particle size) from Waters Inc. was used, the column oven temperature was set at 40°C. To determine the concentration of the compounds, eluent A containing 0.1% trifluoroacetic acid (TFA) in water, eluent B containing 0.1% TFA in acetonitrile and a linear gradient (5-100% B in 3 min) were utilized. Molecular ions (MH+) were generated by combined ESI and APCI ionization methods and collected by a DUIS detector. The mass spectrometer was calibrated by standards provided by Shimadz u Scientific Instruments. Single ion monitoring (SIM) methods were used to maximize sensitivity for each compound as described in Table […]
Compound ID Primary Ion Secondary Ion Note
+ + 414.15+ is identical to MH+ generated
• To establish calibration curves, the weighted compounds were dissolved in 100 µL of dimethyl sulfoxide (DMSO) and diluted by 400 µL of acetonitrile (ACN). The stock solution was further diluted by ACN (5x, in 5 steps). For all LC-MS experiments 5 µL sample was injected. To perform equilibration studies, 500 µL phosphate buffer was added to each weighted compound. The results slurries were stirred at room temperature for 20 hr. After equilibration, the samples were transferred to […]
Eppendorf tubes and centrifuged for 30 min at 2,000 x g. 200 µL of the supernatant of each sample was transferred and centrifuged again f or 30 min at 2,000 x g. Dilution and LC-MS analyses were performed as described for the calibration curves.
ACN, DMSO and HPLC quality water were purchased from MilliporeSigma Inc.
TFA (99.9% purity) was from Chem-Impex International Inc.
• The data was archived in the MD&S Laboratory electronic notebook (ChemCart, DeltaSoft Inc.) on […]
• Data processing software used: Microsoft Office 365 – Excel.
3.1 Structures, molecular weights
Compound Chemical Exact SMILE
[C@]4([H])OC3)C=C2)=C(C)NC5=CC=C(Cl)C=C51
[H])OC3)C=C2)=C(C)NC5=CC=C(Cl)C=C51
4([H])OC3)C=C2)=C(C)NC5=CC=C(Cl)C=C51
C@]4([H])OC3)C=C2)=C(C)NC5=CC=C(Cl)C=C51
Table 2. Compound IDs, chemical formulas, exact (monoisotopic) molecular weights, SMILE notations

[3] = Cytotoxicity on BJ fibroblasts, CTG reagent; assay type: cell-based; details: human BJ fibroblasts, 72 h exposure at 37 °C, read-out: Cytotox. IC50
Description: as §1

[4] = Kinetic (report: thermodynamic) solubility in pH 7.4 phosphate buffer, quantitative LC-MS; assay type: physicochemical; details: 23 °C
D6 = tested on: D6; design: method as in PMID 24720377; details: strain D6; cited from earlier work
[5] = tested on: human hepatoma-derived HepG2 cells; design: method as in PMID 24720377; details: read-out: Cytotox. IC50; cited from earlier work
Tm90-C2B = tested on: Tm90-C2B; design: method as in PMID 24720377; details: strain Tm90-C2B; cited from earlier work
Dd2 = tested on: Dd2; design: method as in PMID 24720377; details: strain Dd2; cited from earlier work
[6] = design: method as in PMID 23515079; details: cited from earlier work
[7] = P. falciparum strain 3D7, read-out: EC50 (antimalarial potency)
[8] = chloroquine-sensitive P. falciparum strain 3D7, read-out: EC50

| EC50 [1, 7] | solubility at 20 h ([2]; read-out: Solubility) | solubility at 20 h ([2]; read-out: Solubility (mg/mL)) | EC50 [1, 8] | solubility thermodynamic at 20 h [4] | Structure (SMILES) | IC50 at 72 h [3] | other results |
| --- | --- | --- | --- | --- | --- | --- | --- |
| – | – | – | > 1000 nM | – | CC(=O)OC1COC2C(Oc3ccc(-c4c(C)[nH]c5ccc(Cl)cc5c4=O)cc3)COC12 (centres unmarked) [C00003] | > 100000 nM | – |
| – | – | – | > 1000 nM | 22 µM (≈ 9.41 µg/mL) | COC1COC2C(Oc3ccc(-c4c(C)[nH]c5ccc(Cl)cc5c4=O)cc3)COC12 (centres unmarked) [C00005] | > 100000 nM | – |
| – | – | – | > 1000 nM | 127 µM (≈ 59.9 µg/mL) | COCCOC1COC2C(Oc3ccc(-c4c(C)[nH]c5ccc(Cl)cc5c4=O)cc3)COC12 (centres unmarked) [C00006] | > 100000 nM | – |
| – | – | – | > 1000 nM | 95 µM (≈ 39.3 µg/mL) | Cc1[nH]c2ccc(Cl)cc2c(=O)c1-c1ccc(OC2COC3C(O)COC23)cc1 (centres unmarked) [C00004] | > 100000 nM | – |

The remaining lines, values behind:

| Structure (SMILES) | EC50 [1, 7] | solubility at 20 h ([2]; read-out: Solubility) | solubility at 20 h ([2]; read-out: Solubility (mg/mL)) | EC50 [1, 8] | solubility thermodynamic at 20 h [4] | IC50 at 72 h [3] | other results |
| --- | --- | --- | --- | --- | --- | --- | --- |
| CC(=O)O[C@H]1CO[C@H]2[C@@H]1OC[C@@H]2Oc1ccc(-c2c(C)[nH]c3ccc(Cl)cc3c2=O)cc1 [Compound 14, (3S,3aR,6S,6aR)-6-(4-(6-Chloro-2-methyl-4-oxo-1,4-dihydroquinolin-3-yl)phenoxy)hexahydrofuro[3,2-b]furan-3-yl Acetate] | > 1000 nM | – | – | – | – | – | melting point: 298 to 299 °C; Solubility (M) ([2]; listed as JS-13): Unstable in buffer; also recorded: hydrolyzed under equilibrating conditions |
| CO[C@H]1CO[C@H]2[C@@H]1OC[C@@H]2Oc1ccc(-c2c(C)[nH]c3ccc(Cl)cc3c2=O)cc1 [Compound 16, 6-Chloro-3-(4-(((3S,3aR,6S,6aR)-6-methoxyhexahydrofuro[3,2-b]furan-3-yl)oxy)phenyl)-2-methylquinolin-4(1H)-one] | > 1000 nM | 22 µM | 0.009 mg/mL | – | – | – | – |
| Cc1[nH]c2ccc(Cl)cc2c(=O)c1-c1ccc(Oc2ccc(OC(F)(F)F)cc2)cc1 [C00002] | – | – | – | – | – | – | EC50 (D6): 3.2 nM; IC50 [5]: > 10000 nM; EC50 (Tm90-C2B): 2.3 nM; EC50 (Dd2): 5.6 nM |
| Cc1[nH]c2ccc(Cl)cc2c(=O)c1-c1ccc(O[C@H]2CO[C@H]3[C@@H]2OC[C@@H]3O)cc1 [Compound 15, 6-Chloro-3-(4-(((3S,3aR,6S,6aR)-6-hydroxyhexahydrofuro[3,2-b]furan-3-yl)oxy)phenyl)-2-methylquinolin-4(1H)-one] | > 1000 nM | 95 µM | 0.039 mg/mL | – | – | – | – |
| COCCO[C@H]1CO[C@H]2[C@@H]1OC[C@@H]2Oc1ccc(-c2c(C)[nH]c3ccc(Cl)cc3c2=O)cc1 [Compound 17, 6-Chloro-3-(4-(((3S,3aR,6S,6aR)-6-(2-methoxyethoxy)hexahydrofuro[3,2-b]furan-3-yl)oxy)phenyl)-2-methylquinolin-4(1H)-one] | > 1000 nM | 127 µM | 0.06 mg/mL | – | – | – | – |
| COc1cc2[nH]c(C)c(-c3ccc(Oc4ccc(OC(F)(F)F)cc4)cc3)c(=O)c2cc1Cl [C00001] | – | – | – | – | – | – | EC50 (D6): 2.2 nM; Kinetic Solubility [6]: 16 µM; IC50 [5]: > 10000 nM; EC50 (Tm90-C2B): 1.4 nM; EC50 (Dd2): 2.5 nM |
